Assay results reported in US10011571B2, “Preparation method for aromatic heterocyclic compound used as selective JAK3 and/or JAK1 kinase inhibitor and application of aromatic heterocyclic compound” (SHENZHEN CHIPSCREEN BIOSCIENCES, LTD., priority 2014, dated 2018).
Counter-ions that a name gives are not always drawn.

How the values were obtained:
JAK2 = JAK2 (Homo sapiens (Human), UniProt O60674); test: Z'-LYTE enzymatic activity detection, JAK2; assay type: biochemical; conditions: test compound 30 nM; for inhibition at 0.03 µM: read-out: JAK2 % inhibitory rate @30 nM
How it was run: (§1)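 GST-tagged human recombinant kinases with Z′-LYTE peptides (Tyr6 for JAK1, Tyr4 for JAK2 and JAK3), ATP from kit, reacted 1 h at room temperature; development 1 h, ratio 445/520 nm at 400 nm excitation gives phosphorylation. Inhibition vs solvent control at 30 nM (JAK2, JAK3) or 300 nM (JAK1); tofacitinib as positive control.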

CTLL-2 cells = test: Cell growth activity assay (MTS), CTLL-2 cell model; assay type: cell-based, mouse; conditions: Mus musculus; for activity at 0.3 µM: CTLL-2, 300 nM, 24 h, read-out: CTLL-2 % growth rate @300 nM
How it was run: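 Mouse IL-2-dependent T-cell line seeded ~20,000 cells/well, compounds added after 24 h at gradient concentrations (top 10 μM; CTLL-2 evaluation at 300 nM), cultured another 24 h. MTS/PMS added, 2 h at 37° C, absorbance 490 nm; inhibition vs DMSO control after negative-control background subtraction, GI50 calculated; triplicate.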

HeLa cells = test: Cell growth activity assay (MTS), HeLa cell model; assay type: cell-based, human; set-up: activity: dose or concentration left out as unconfirmed; conditions: Homo sapiens, HeLa, 72 h; for activity: read-out: HeLa % growth rate
How it was run: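 HeLa human cervical cancer cells were plated at about 5000 cells/well in a 96-well plate. After 24 h, test compounds were added in concentration gradients (highest final concentration 40 μM), alongside a DMSO solvent control and a negative control. After another 72 h, the medium was replaced with 100 μL fresh medium plus 20 μL MTS/PMS (20:1). Plates were incubated 2 h at 37° C. and absorbance was read at 490 nm to give growth inhibition and GI50.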

JAK1 = JAK1 (Homo sapiens (Human), UniProt P23458); test: Z'-LYTE enzymatic activity detection, JAK1; assay type: biochemical; conditions: test compound 300 nM; for inhibition at 0.3 µM: read-out: JAK1 % inhibitory rate @300 nM
How it was run: as §1

JAK3 = JAK3 (Homo sapiens (Human), UniProt P52333); test: Z'-LYTE enzymatic activity detection, JAK3; assay type: biochemical; conditions: test compound 30 nM; for inhibition at 0.03 µM: read-out: JAK3 % inhibitory rate @30 nM
How it was run: as §1

HUVEC cells = test: Cell growth activity assay (MTS), HUVEC cell model; assay type: cell-based; conditions: Homo sapiens, 72 h; for activity at 10 µM: read-out: HUVEC % growth rate @10 μM
Excerpt: MTS assay is a routine method for cell toxicity detection. The basic principle is based on the capacity of dehydrogenase in the mitochondria of living cells to reduce a novel yellow […] MTS to formazan, so that the amount of living cells is proportional to the amount of formazan product by detecting the absorbance at 490 nm (OD), thereby speculating the amount of living cells according to the OD value, and understanding the capacity of the test compound to inhibit the growth of cells or to kill the cells.
HeLa cell is a human cervical cancer cell line, and belongs to epithelial tumor cell line; HUVEC is a human umbilical vein endothelial cell, and belongs to primary endothelial cell; both types of cells express all subtypes except for JAK3.
The change of JAK kinase activity has no significant influence on other cell types except for the immune cells, and both cell models mentioned above are mainly used to evaluate whether there are any other kinase targets besides JAK kinases or there are nonselective cell toxicities.
In this experiment, a cultured cell model is incubated with the test compounds at different concentrations for a specific duration. The effect of the treatment by the test compound on the growth of cells is detected using MTS assay.
MTS is performed according to routine procedure in a 96-well plate.
The model cells are inoculated into each well of the 96-well plate at an appropriate concentration (about 5000 cells/well). After 24 h, the test compounds are added at different concentration gradients (the highest final concentration is 40 μM). A solvent control (DMSO) and a negative control are also performed at the same time. Each experiment is repeated for 3 times. The cells are detected after cultured for another 72 h.
After all culture medium is aspirated out of the well, 100 μL fresh medium and 20 μL pre-formulated mixture of MTS and PMS (in a ratio of 20:1) are added to each well. After incubation at 37° C. for 2 h, it is then detected by a microplate reader (490 nm).
The cell growth inhibitory rate and GI50 of the test compound are calculated as above.
Based on the above method, cytological evaluation is performed to the compounds described herein (for the detection of CTLL-2 cell, the concentration of the test compound is 300 nM; […]).

[1] = test system: collagen-induced arthritis (CIA) model of rats; test: Collagen-induced arthritis (CIA) model of rats; assay type: in vivo; conditions: rat CIA
Description: Objective: in this test, arthritis is induced by chicken collagen in Wistar rats. After in vivo administration of the compounds of Example 7 and Example 22, the change of the disease index for arthritis in rats is evaluated to determine the therapeutic effect of the test compounds on rat arthritis.
Experimental animals: 36 female Wistar rats were purchased from the animal experiment center, Sun Yat-Sen University (Guangzhou) with the body weight ranging from 180 to 200 g at the beginning of experiment. Four groups (8 rats in each group) were used as the arthritis model, and another group (4 rats) was used as normal control.
Materials: chicken type II collagen and Freund's complete adjuvant were purchased from Beijing Biolead Science and Technology Development Co., Ltd. Positive control: methotrexat (MTX).
Preparation method: the test compounds were prepared by adding them to freshly prepared 0.2% CMC-Na+0.1% Tween-80 solution in sterile water to a desired concentration and thoroughly mixing through ultrasound.
CIA model: the chicken collagen was fully emulsified in equal volume of freud's complete adjuvant, and subcutaneously injected at the tail root of the rat on day 0 for sensitization (250 μL/rat). Another injection was performed at the tail root on day 7 for supplementary immunization (100 μL/rat). After arthritis occurred (on about day 13), the rats were randomly divided into 4 groups with 8 rats in each group. Administration started on day 14 after the first immunization, and lasted for 14 days. The limbs of a rat were visually inspected, and the severity of arthritis was scored in a range from […]: 0=normal; 1=a slight symptom, with signs, such as red and swollen ankle or wrist; 2=moderate red and swollen ankle or wrist; 3=severe red and swollen paw, including toes; 4=severe swollen joint accompanied with dysfunction; the highest score for each rat was 16. The thickness of toes of posterior limbs and the paw volume were measured at the same time.
Medication: the rats were i.g. administered with the compound of Example 7 at a concentration of 40 mg/kg twice/day; or the rats were i.g. administered with the compound of Example 22 at a concentration of 40 mg/kg twice/day. For the positive control, 5 mg/kg MTX was intraperitoneally injected twice a week. The i.g. administration of solvent was used as the negative control. The data obtained 14 days after administration and before administration were compared.

[2] = 14 days after administration, Examples 40 mg/kg i.g. twice/day, MTX 5 mg/kg i.p. twice a week

Sequence of JAK1 (P23458 whole entry): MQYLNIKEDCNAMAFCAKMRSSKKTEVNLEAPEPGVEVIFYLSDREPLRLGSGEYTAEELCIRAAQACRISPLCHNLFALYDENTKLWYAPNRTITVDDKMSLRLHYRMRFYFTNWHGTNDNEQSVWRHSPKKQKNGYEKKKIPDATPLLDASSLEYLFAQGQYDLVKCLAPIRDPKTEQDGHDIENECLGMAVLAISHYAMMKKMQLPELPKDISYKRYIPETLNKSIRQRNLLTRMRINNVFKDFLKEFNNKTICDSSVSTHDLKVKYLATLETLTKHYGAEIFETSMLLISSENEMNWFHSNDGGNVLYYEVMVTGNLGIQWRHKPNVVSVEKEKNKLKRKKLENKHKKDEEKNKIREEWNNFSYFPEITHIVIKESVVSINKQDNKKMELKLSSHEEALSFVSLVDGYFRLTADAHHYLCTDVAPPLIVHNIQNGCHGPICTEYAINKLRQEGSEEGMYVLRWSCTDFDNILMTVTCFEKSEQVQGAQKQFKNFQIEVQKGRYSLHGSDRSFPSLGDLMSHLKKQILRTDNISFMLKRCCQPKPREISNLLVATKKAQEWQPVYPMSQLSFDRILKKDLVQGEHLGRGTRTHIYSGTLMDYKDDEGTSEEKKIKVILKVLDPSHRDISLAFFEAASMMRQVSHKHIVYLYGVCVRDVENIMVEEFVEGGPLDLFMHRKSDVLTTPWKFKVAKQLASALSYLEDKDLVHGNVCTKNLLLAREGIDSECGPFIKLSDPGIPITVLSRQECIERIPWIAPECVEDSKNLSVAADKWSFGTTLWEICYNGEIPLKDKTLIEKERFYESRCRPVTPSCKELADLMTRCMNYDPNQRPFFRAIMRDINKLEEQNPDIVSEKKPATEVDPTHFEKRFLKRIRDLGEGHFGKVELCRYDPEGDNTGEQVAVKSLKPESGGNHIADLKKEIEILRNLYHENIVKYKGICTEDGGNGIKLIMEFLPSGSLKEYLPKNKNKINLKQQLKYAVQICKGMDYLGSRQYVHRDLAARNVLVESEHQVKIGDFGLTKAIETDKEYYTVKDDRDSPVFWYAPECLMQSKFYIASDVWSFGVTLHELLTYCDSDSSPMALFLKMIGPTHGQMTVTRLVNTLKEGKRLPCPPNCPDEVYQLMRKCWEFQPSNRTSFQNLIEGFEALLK
Sequence of JAK3 (P52333 whole entry): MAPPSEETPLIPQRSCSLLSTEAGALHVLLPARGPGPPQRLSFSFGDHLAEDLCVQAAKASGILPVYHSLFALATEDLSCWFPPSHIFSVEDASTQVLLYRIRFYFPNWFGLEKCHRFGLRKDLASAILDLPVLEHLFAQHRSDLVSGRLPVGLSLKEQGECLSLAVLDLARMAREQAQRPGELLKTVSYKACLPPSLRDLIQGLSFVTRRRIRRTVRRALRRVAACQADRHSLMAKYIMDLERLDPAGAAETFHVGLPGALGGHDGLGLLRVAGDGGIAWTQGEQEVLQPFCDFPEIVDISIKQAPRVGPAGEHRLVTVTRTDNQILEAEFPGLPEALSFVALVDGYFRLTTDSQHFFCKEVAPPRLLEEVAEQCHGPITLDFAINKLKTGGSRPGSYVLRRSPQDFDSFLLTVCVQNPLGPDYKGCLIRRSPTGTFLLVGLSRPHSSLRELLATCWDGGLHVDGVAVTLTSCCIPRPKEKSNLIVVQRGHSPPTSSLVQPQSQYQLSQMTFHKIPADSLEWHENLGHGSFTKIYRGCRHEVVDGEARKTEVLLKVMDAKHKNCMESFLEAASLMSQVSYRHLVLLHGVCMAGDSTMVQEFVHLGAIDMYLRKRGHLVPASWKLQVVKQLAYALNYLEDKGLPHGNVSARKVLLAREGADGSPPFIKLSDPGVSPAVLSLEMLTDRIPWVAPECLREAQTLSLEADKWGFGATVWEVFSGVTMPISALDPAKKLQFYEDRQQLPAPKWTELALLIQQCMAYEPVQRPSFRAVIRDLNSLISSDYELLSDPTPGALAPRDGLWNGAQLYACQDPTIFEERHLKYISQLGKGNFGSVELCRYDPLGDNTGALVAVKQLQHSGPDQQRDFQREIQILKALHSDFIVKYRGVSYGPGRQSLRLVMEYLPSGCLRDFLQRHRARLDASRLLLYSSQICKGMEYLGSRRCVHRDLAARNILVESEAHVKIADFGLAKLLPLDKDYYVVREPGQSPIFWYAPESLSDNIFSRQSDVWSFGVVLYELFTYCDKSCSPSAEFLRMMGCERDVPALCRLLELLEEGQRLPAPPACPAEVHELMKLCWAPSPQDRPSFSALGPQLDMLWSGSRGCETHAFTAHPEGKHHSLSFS
Sequence of JAK2 (O60674 whole entry): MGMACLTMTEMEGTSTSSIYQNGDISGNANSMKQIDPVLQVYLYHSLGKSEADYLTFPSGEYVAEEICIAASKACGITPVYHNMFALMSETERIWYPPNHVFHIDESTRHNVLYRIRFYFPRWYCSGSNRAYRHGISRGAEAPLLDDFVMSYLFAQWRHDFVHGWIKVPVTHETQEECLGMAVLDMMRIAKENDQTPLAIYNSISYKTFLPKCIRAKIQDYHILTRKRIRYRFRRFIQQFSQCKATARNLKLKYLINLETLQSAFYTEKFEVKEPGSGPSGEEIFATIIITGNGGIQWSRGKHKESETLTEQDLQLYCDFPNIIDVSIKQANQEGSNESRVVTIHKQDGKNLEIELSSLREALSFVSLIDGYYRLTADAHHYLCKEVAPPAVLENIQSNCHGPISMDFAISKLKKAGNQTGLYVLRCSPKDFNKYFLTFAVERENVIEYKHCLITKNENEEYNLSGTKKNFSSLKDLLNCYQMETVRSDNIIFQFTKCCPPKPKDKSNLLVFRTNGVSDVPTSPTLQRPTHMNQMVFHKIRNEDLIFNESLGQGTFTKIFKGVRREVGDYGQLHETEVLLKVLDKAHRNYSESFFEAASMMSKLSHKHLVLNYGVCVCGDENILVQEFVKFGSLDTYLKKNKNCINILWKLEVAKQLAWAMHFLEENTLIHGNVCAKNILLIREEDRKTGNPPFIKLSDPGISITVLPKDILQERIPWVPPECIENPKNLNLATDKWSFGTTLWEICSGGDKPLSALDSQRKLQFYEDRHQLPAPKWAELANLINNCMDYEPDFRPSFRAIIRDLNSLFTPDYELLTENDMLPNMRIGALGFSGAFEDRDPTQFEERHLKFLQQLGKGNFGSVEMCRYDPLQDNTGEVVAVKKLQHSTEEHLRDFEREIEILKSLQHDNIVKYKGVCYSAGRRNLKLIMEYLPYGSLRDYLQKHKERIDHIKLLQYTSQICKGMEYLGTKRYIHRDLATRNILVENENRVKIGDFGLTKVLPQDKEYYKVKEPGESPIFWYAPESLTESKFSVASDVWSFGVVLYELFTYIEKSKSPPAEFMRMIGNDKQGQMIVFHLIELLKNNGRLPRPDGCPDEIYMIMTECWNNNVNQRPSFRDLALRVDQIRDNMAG

| JAK2 RV (ratio between the inhibitory rate of the test compound and that of Xeljanz) (JAK2) | inhibition at 0.03 µM (JAK2) | JAK1 RV (ratio between the inhibitory rate of the test compound and that of Xeljanz) (JAK1) | inhibition at 0.3 µM (JAK1) | JAK3 RV (ratio between the inhibitory rate of the test compound and that of Xeljanz) (JAK3) | inhibition at 0.03 µM (JAK3) | GI50 (HeLa cells) | SMILES | activity at 0.3 µM (CTLL-2 cells) | activity (HeLa cells) | activity at 10 µM (HUVEC cells) | GI50 (CTLL-2 cells; CTLL-2, 24 h) | GI50 (HUVEC cells) | Inhibitory rate for arthritis score % [1, 2] | Inhibitory rate for paw volume % [1, 2] | Inhibitory rate for toe thickness % [1, 2] | Body weight growth rate % ([1]; 14 days after administration, solvent = 100.0, Examples 40 mg/kg i.g. twice/day, MTX 5 mg/kg i.p. twice a week) | toxicity to the rats judged from body weight ([1]; compared to the solvent group) |
| --- | --- | --- | --- | --- | --- | --- | --- | --- | --- | --- | --- | --- | --- | --- | --- | --- | --- |
| 0.03 | 1% | 0.93 | 79% | 0.97 | 84% | – | C=CC(=O)Nc1cc(Nc2ncc(Cl)c(NCCCNC(=O)c3ccc(F)cc3)n2)ccc1F [Example 17, N-(3-(2-(3-acrylamido-4-fluoro-phenylamino)-5-chloropyrimidinyl-4-amino)propyl)-4-fluorobenzamide] | 20% | 1% | 1% | – | – | – | – | – | – | – |
| 0.03 | 2% | 0.57 | 49% | 0.94 | 89% | – | C=CC(=O)N(C)c1cc(Nc2ncc(Cl)c(NCCCNC(=O)c3ccc(N(C)C)cc3)n2)ccc1F [Example 32, N-(3-(5-chloro-2-(4-fluoro-3-(N-methylacrylamido)phenylamino)pyrimidinyl-4-amino)propyl)-4-dimethylamino benzamide] | 16% | 68% | 72% | – | – | – | – | – | – | – |
| 0.03 | 2% | 0.40 | 34% | 0.85 | 81% | – | C=CC(=O)Nc1cc(Nc2ncc(Cl)c(NCCCNC(=O)c3ccc(C#N)cc3)n2)ccc1F [Example 28, N-(3-(2-(3-acrylamido-4-fluorophenylamino)-5-chloropyrimidinyl-4-amino)propyl)-4-cyano-benzamide] | 77% | 81% | 98% | – | – | – | – | – | – | – |
| – | – | 0.45 | 42% | 0.59 | 35% | – | C=CC(=O)N(C)c1cc(Nc2ncc(Cl)c(NCCCNC(=O)C3CCN(C)CC3)n2)ccc1F [Example 27, N-(3-(5-chloro-2-(4-fluoro-3-(N-methylacrylamido)phenylamino)pyrimidinyl-4-amino)propyl)-1-methylpiperidinyl-4-formamide] | 85% | 30% | 6% | – | – | – | – | – | – | – |
| – | – | – | – | – | – | > 40 µM | C[C@@H]1CCN(C(=O)CC#N)C[C@@H]1N(C)c1ncnc2[nH]ccc12 [Xeljanz, tofacitinib citrate, reference compound] | – | – | – | 0.067 µM | > 40 µM | – | – | – | – | – |
| – | – | – | – | – | – | – | CN(Cc1cnc2nc(N)nc(N)c2n1)c1ccc(C(=O)N[C@@H](CCC(=O)O)C(=O)O)cc1 [MTX, methotrexate, reference compound] | – | – | – | – | – | 73.1% | 43.1% | 70.2% | 95.4% | certain toxicity |
| 0.07 | 2% | 0.69 | 59% | 0.82 | 71% | – | C=CC(=O)N(C)c1cc(Nc2ncc(C)c(NCCCNC(=O)c3ccc(C(F)(F)F)cc3)n2)ccc1F [Example 21, N-(3-(2-(4-fluoro-3-(N-methylacrylamido)phenylamino)-5-methylpyrimidinyl-4-amino)propyl)-4-trifluoromethylbenzamide] | 57% | 94% | 102% | – | – | – | – | – | – | – |
| – | 0% | – | 39% | – | 59% | – | C=CC(=O)N(C)c1cc(Nc2ncc(C)c(NCCCNC(=O)c3ccc(F)cc3)n2)ccc1F [Example 19, 4-fluoro-N-(3-(2-(4-fluoro-3-(N-methylacrylamido)phenylamino)-5-methylpyrimidinyl-4-amino)propyl)benzamide] | 67% | 108% | 136% | – | – | – | – | – | – | – |
